# Values of other authors in publication PMC11599114 (Viruses, 2024).
# Where two headings read alike, the source gives them in different places.
# Assays:
# [1] = system: HCoV-229E; settings: Vero
# [2] = system: SARS-CoV-2; settings: SARS-CoV-2, Vero
# [3] = system: HCoV-OC43; settings: HCoV-OC43, Vero
# [4] = system: HPIV-3; settings: HPIV-3, Vero
# [5] = system: HSV-1; settings: HSV-1, Vero
# [6] = system: HSV-2; settings: HSV-2, Vero
# [7] = system: SARS-CoV
# [8] = system: SARS coronavirus
# [9] = system: HSV; design: method as in ref 35663971; settings: Huh7, at 10 μM
# [10] = system: Dengue virus 2(DENV2); design: method as in ref 35663971; settings: DENV2, Huh7, at 10 μM
# [11] = system: SARS-CoV-2; design: method as in ref 35663971; settings: SARS-CoV-2, Huh7, at 10 μM
# [12] = system: influenza B virus; design: method as in ref 35259078; settings: FluB, MDCK
# [13] = system: influenza A virus(H1N1); design: method as in 2 sources; settings: A(H1N1), MDCK
# [14] = system: SARS-CoV-2 (HKU001a); design: method as in ref 35259078; settings: Vero E6
# [15] = system: SARS-CoV-2(Delta); design: method as in ref 35259078; settings: Vero E6
# [16] = system: influenza A virus(H3N2); design: method as in 2 sources; settings: A(H3N2), MDCK
# [17] = system: SARS-CoV-2; design: method as in 3 sources; settings: SARS-CoV-2 S-mediated fusion
# [18] = system: MERS-CoV
# [19] = system: HCoV-229E
# [20] = system: SARS-CoV; remark: listed apart in the source
# [21] = system: HCoV-NL63
# [22] = system: SARS-CoV-2; design: method as in 3 sources; settings: SARS-CoV-2 PsV, Huh-7
# [23] = system: A/Parma0/5/06 H3N2; settings: A/Parma0/5/06 H3N2, MDCK
# [24] = system: A/Roma-ISS/02/08 H1N1; settings: A/Roma-ISS/02/08 H1N1, MDCK
substance,measurement,setting,value
FVPWFSKFlKRIL [DRAVPe00383],IC90,[1],50 µM
same,IC90,[2],12.9 µM
same,IC90,[3],16.3 µM
same,IC90,[4],> 50 µM
same,IC90,[5],10.5 µM
same,IC90,[6],7.99 µM
FVPWFSKFlkRIL [DRAVPe00384],IC90,[1],50 µM
same,IC90,[2],25.3 µM
same,IC90,[3],29.2 µM
same,IC90,[4],> 50 µM
same,IC90,[5],12.7 µM
same,IC90,[6],12.5 µM
GYFVQDDGEWKFTGSSYYY [DRAVPe01421],IC50,[7],4 µM
KKKKYRNIRRPG [AVP1641],Activity,[8],45 µg/mL
MGRFKRFRKKFKKLFKKLS [DRAVPe01948],inhibition,[9],50%
same,inhibition,[10],50%
same,inhibition,[11],80%
RGAHIKGRWKSRCHRF [DRAVPe01802],IC50,[12],7.1 µg/mL
same,IC50,[13],3.9 µg/mL
same,IC50,[14],2.9 µg/mL
same,IC50,[15],3.9 µg/mL
same,IC50,[16],1.6 µg/mL
SLDYINVTFLDLQDEMNRLQEAIKVLNQSYINLKDI [DRAVPe00419],IC50,[17],4.1 ± 1 nM
same,IC50,[18],5.2 nM
same,IC50,[19],2010 ± 698 nM
same,IC50,[20],250 nM
same,IC50,[21],416 ± 228 nM
same,IC50,[22],82.8 ± 22.1 nM
TNGESTADWAKN [DRAVPe01645],EC50,[23],10 nM
same,EC50,[24],400 ± 0.02 nM
